Assay results taken from patent publication US20230048888A1, “USE OF TRIAZOLOTRIAZINE DERIVATIVE IN TREATMENT OF DISEASES” (ZHEJIANG VIMGREEN PHARMACEUTICALS, LTD., priority 2019, published 2023).

Columns and labels:
[1] = test system: reserpine-induced dyskinesia; assay: Rat reserpine-induced dyskinesia model; assay type: in vivo
[2] = test system: haloperidol-induced stiffness; assay: Haloperidol-induced rat Parkinson's disease stiffness model (stiffness latency on metal rod); assay type: in vivo
Experimental: The animals required for the day were transferred from the rearing room to an operation room in advance, and were let to acclimate for at least 30 min before the test was initiated. […] After 30 minutes, the test animals were intraperitoneally injected with haloperidol or vehicle 2 without haloperidol, and put back to the original rearing cages. At 60 and 120 minutes after the injection of haloperidol or vehicle 2, the forelimbs of the rat were gently placed vertically on a horizontal metal rod with a length of 20.5 cm, a diameter of 1.2 cm, and a height of 8.5 cm above the workbench, then its hind limbs were gently placed on a test box, and timing started. When the rat moved or climbed down on the metal rod with forelimbs, the timing was stopped, and the duration for the two forelimbs of the rat to maintain the posture on the metal rod was recorded, i.e., being recorded as stiffness latency. If the rat's front paws were not put down, the observation was terminated after 600 sec, and the stiffness latency of this animal was recorded as 600 sec. When the rod climbing test was completed that day, 5 animals from each group were perfused and fixed, and whole brains were removed for preservation. Stiffness latency: the time for the two forelimbs of a rat to keep still on the metal rod. The longest stiffness latency was 600 sec. Stiffness rate %=(stiffness latency/600)*100% All measurement data were represented as mean±standard error of mean (mean±SEM), and check analysis was performed by Prism 8.0 statistical software.

[3] = target: T1, Human adenosine ADORA1 receptor membrane protein (Homo sapiens, UniProt P30542); assay: Radioisotope ligand competitive binding, ADORA1 ([3H] DPCPX); conditions: ADORA1 (IC50, nM, n = 3), binding test
T1 construct: purchased PerkinElmer ES-010-M400UA
T1 sequence (P30542 1-326): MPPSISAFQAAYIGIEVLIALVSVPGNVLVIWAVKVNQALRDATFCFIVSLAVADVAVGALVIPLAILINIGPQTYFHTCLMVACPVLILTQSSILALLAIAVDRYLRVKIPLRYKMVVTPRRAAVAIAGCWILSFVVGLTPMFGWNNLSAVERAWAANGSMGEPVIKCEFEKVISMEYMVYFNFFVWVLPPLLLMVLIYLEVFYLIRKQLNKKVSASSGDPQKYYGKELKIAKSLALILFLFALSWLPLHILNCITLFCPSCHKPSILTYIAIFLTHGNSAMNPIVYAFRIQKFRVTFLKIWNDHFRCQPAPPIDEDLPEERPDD
Experimental: ADORA1: 25 mM HEPES pH 7.4, 5 mM MgCl2, 1 mM CaCl2, 100 mM NaCl
4) Preparation of compounds: the test compounds and the reference compounds were separately diluted with 100% DMSO.
(§1) 1 μL of a sample to be tested and 1 μL of a reference compound were added to a 96-well plate in sequence. […] 100 μL of cells and 100 μL of isotopes were added to all experimental wells. The 96-well plate was sealed; ADORA1, ADORA2B, and ADORA3 were incubated for 1 hour on a shaker (300 rpm) at room temperature (22° C.); and ADORA2A was incubated for 2 hours on a shaker (300 rpm) at room temperature (22° C.). At the same time, a GF/C filter plate was soaked with ADORA1, ADORA2A, ADORA2B, and ADORA3 by using 0.3% PEI for at least 30 minutes at room temperature, at 50 μL/well. After the incubation was completed, the incubated reaction system was collected onto the GF/C filter plate with a Harvester, washed 4 times and then dried for 0.5 hours in an oven at 50° C. The bottom of the dried GF/C filter plate was sealed with a film, 50 μL of scintillation solution was added to each well, which was then sealed with a Top-seal-A film. With Microbeta readings, the data was analyzed by GraphPad Prism 5.0.
(§2) % Inhibition=100×(1−(Sample_raw value−Low control_Average)/(High control_Average−Low control_Average))
(§3) The data was fitted with “log(inhibitor) vs response-variable slope” in GraphPad Prism 5.0 to obtain IC50.

[4] = target: T2, Human adenosine ADORA3 receptor membrane protein (Homo sapiens, UniProt P0DMS8); assay: Radioisotope ligand competitive binding, ADORA3 ([3H] HEMADO); conditions: ADORA3 (IC50, nM, n = 3), binding test
T2 construct: purchased PerkinElmer ES-012-M400UA
T2 sequence (P0DMS8 1-318): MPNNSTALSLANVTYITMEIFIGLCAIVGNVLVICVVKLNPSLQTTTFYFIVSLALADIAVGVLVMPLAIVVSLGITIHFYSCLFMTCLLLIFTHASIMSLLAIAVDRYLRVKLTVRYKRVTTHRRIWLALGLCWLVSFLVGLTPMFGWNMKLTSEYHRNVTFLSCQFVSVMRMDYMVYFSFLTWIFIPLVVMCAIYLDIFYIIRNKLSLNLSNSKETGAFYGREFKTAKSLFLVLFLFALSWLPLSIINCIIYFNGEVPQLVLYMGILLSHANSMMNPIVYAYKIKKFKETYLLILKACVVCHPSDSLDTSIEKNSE
Experimental: ADORA3: 25 mM HEPES pH 7.4, 10 mM MgCl2, 1 mM CaCl2, 0.5% BSA
4) Preparation of compounds: the test compounds and the reference compounds were separately diluted with 100% DMSO. For the test compounds, the initial concentration was 10 μM, with double secondary wells; 4-fold gradient dilution was carried out at 10 points; and the final working concentration was 0.038 nM-10 μM (for the second and third detection of the test compound against an ADORA2A target, the initial concentration was 2 μM, with double secondary wells, 4-fold gradient dilution was carried out at 10 points, and the final working concentration was 0.0076 nM-2 μM). For the ADORA1, ADORA2A, ADORA2B, and ADORA3 reference compounds, the initial concentration was 1 μM, with double secondary wells, 4-fold gradient dilution was carried out at 10 points, and the final working concentration was 0.0038 nM-1 μM.
as §1, §2, §3

[5] = 7.5 mg/kg intragastric, 0-30 min
[6] = 7.5 mg/kg intragastric, 0-60 min
[7] = 7.5 mg/kg intragastric, 30-60 min
[8] = 15 mg/kg intragastric, 0-30 min
[9] = 15 mg/kg intragastric, 0-60 min
[10] = 15 mg/kg intragastric, 30-60 min
[11] = 30 mg/kg intragastric, 0-30 min
[12] = 30 mg/kg intragastric, 0-60 min
[13] = 30 mg/kg intragastric, 30-60 min
[14] = 10 mg/kg intragastric, 60 min after haloperidol
[15] = 10 mg/kg intragastric, 120 min after haloperidol

In the case of `CC(=O)O.Nc1nc(NCCc2ccc(NC3COC3)cc2)nc2nc(-c3ccco3)nn12` [Acetate of Compound 22, 2-(furan-2-yl)-N5-(4-(oxetane-3-ylamino)phenethyl)-[1,2,4]triazolo[1,5-a][1,3,5]triazine-5,7-diamine acetate], the Number of standings [1, 5] is reported as 28.5 ± 7.1, the Walking distance [1, 5] is reported as 0.9 ± 0.3 m and the Walking time [1, 5] is reported as 9.3 ± 4.3 s. It also gave a Number of standings [1, 6] of 56.7 ± 12.6, a Walking distance [1, 6] of 2.0 ± 0.6 m and a Walking time [1, 6] of 17.8 ± 7.5 s. The Number of standings [1, 7] was 28.3 ± 6.9, the Walking distance [1, 7] was 1.0 ± 0.3 m and the Walking time [1, 7] was 16.2 ± 7.6 s. For the same compound, the Number of standings [1, 8] was 51.9 ± 7.4, the Walking distance [1, 8] was 1.8 ± 0.4 m and the Walking time [1, 8] was 26.3 ± 5.6 s. For the same compound, the Number of standings [1, 9] was 110 ± 12.7, the Walking distance [1, 9] was 3.8 ± 0.6 m and the Walking time [1, 9] was 48.5 ± 8.2 s. It also gave a Number of standings [1, 10] of 58.2 ± 7.7, a Walking distance [1, 10] of 2.0 ± 0.4 m and a Walking time [1, 10] of 40.3 ± 15.6 s. The Number of standings [1, 11] was 56.5 ± 9.6, the Walking distance [1, 11] was 2.5 ± 1.0 m and the Walking time [1, 11] was 35.8 ± 12.6 s. It also gave a Number of standings [1, 12] of 97.9 ± 15.3, a Walking distance [1, 12] of 3.9 ± 1.4 m and a Walking time [1, 12] of 52.9 ± 17.5 s. The Number of standings [1, 13] was 41.5 ± 6.7, the Walking distance [1, 13] was 1.4 ± 0.4 m and the Walking time [1, 13] was 33.2 ± 12.2 s. The Stiffness rate ([2]; 3 mg/kg intragastric, 60 min) was 1.6 ± 0.8%, the Stiffness latency ([2]; 3 mg/kg intragastric, 60 min after haloperidol) was 9.3 ± 4.5 s and the Stiffness rate ([2]; 3 mg/kg intragastric, 120 min) was 4.1 ± 1.9%. The Stiffness latency ([2]; 3 mg/kg intragastric, 120 min after haloperidol) was 24.8 ± 11.2 s, the Stiffness rate ([2]; 10 mg/kg intragastric, 60 min) was 0.1 ± 0.06% and the Stiffness latency [2, 14] was 0.7 ± 0.4 s. For the same compound, the Stiffness rate ([2]; 10 mg/kg intragastric, 120 min) was 0.4 ± 0.2%, the Stiffness latency [2, 15] was 2.6 ± 1.5 s and the Stiffness rate ([2]; 30 mg/kg intragastric, 60 min) was 0.1 ± 0.05%. For the same compound, the Stiffness latency ([2]; 30 mg/kg intragastric, 60 min after haloperidol) was 0.6 ± 0.3 s, the Stiffness rate ([2]; 30 mg/kg intragastric, 120 min) was 0.1 ± 0.07% and the Stiffness latency ([2]; 30 mg/kg intragastric, 120 min after haloperidol) was 0.6 ± 0.4 s.

Work on `Nc1nc(NCCc2ccc(NC3COC3)cc2)nc2nc(-c3ccco3)nn12` [Compound 22, 2-(furan-2-yl)-N5-(4-(oxetan-3-ylamino)phenethyl)-[1,2,4]triazolo[1,5-a][1,3,5]triazine-5,7-diamine] yielded an IC50 ([3]; Table 10 (IC50)) of 821 ± 54.2 nM, an IC50 ([3]; Table 11) of 564 nM and an IC50 ([4]; Table 10 (IC50)) of 872 ± 492 nM. The IC50 ([4]; Table 11) was 703 nM.

With `Cn1nnc(-c2ccc(CCNc3nc(N)n4nc(-c5ccco5)nc4n3)cc2)n1` [Compound 40, N5-(4-(2-methyl-2H-tetrazol-5-yl)phenethyl)-2-(furan-2-yl)-[1,2,4]triazolo[1,5-a][1,3,5]triazine-5,7-diamine] the IC50 ([3]; Table 10 (IC50)) was 552 ± 283 nM, the IC50 ([3]; Table 11) was 441 nM and the IC50 ([4]; Table 10 (IC50)) was 2000 ± 1030 nM. It also gave an IC50 ([4]; Table 11) of 1610 nM.

`CCn1c(=O)c2c(nc(/C=C/c3ccc(OC)c(OC)c3)n2C)n(CC)c1=O` [Istradefylline, reference compound] showed a Number of standings [1, 8] of 44.1 ± 7.9, a Walking distance [1, 8] of 1.6 ± 0.6 m and a Walking time [1, 8] of 19.6 ± 5.9 s. The Number of standings [1, 9] was 95.7 ± 16.3, the Walking distance [1, 9] was 2.9 ± 0.9 m and the Walking time [1, 9] was 35.1 ± 10.1 s. The Number of standings [1, 10] was 51.6 ± 9.7, the Walking distance [1, 10] was 1.3 ± 0.4 m and the Walking time [1, 10] was 32.0 ± 13.7 s. It also gave a Stiffness rate ([2]; 10 mg/kg intragastric, 60 min) of 0.2 ± 0.1%, a Stiffness latency [2, 14] of 1.4 ± 0.8 s and a Stiffness rate ([2]; 10 mg/kg intragastric, 120 min) of 0.07 ± 0.05%. For the same compound, the Stiffness latency [2, 15] was 0.4 ± 0.3 s.
